From patent US7981903B2, “2-[2-{phenylamino}-1H-pyrrolo[2,3-D]pyrimidin-4-yl)amino] benzamide derivatives as IGF-1R inhibitors for the treatment of cancer” (GlaxoSmithKline LLC, priority 2007, dated 2011)

How the values were obtained:
NCI-H929 = test: Inhibition of cell proliferation (CellTiter-Glo or InCell analyzer), NCI-H929; assay type: cell-based; details: Homo sapiens, 72 h / 3 days, values given as IC50 category
Method in brief: In one

ALK = ALK (Homo sapiens, UniProt Q9UM73); test: ALK enzyme assay (HTRF); assay type: biochemical; details: 0.25 nM ALK, 15.0 μM ATP, values given as pIC50 category
Method in brief: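 Final compound range 0.00017 to 10 μM (twelve 1:3 dilutions). Kinase reaction with ATP and biotinylated synthetic peptide runs 120 min at 20° C, stopped with EDTA; phosphotyrosine detected by HTRF after 60 min. Inhibition referenced to DMSO (1%) and EDTA (0.1 M) controls, curve-fitted.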

Sequence of ALK (Q9UM73 19-1620): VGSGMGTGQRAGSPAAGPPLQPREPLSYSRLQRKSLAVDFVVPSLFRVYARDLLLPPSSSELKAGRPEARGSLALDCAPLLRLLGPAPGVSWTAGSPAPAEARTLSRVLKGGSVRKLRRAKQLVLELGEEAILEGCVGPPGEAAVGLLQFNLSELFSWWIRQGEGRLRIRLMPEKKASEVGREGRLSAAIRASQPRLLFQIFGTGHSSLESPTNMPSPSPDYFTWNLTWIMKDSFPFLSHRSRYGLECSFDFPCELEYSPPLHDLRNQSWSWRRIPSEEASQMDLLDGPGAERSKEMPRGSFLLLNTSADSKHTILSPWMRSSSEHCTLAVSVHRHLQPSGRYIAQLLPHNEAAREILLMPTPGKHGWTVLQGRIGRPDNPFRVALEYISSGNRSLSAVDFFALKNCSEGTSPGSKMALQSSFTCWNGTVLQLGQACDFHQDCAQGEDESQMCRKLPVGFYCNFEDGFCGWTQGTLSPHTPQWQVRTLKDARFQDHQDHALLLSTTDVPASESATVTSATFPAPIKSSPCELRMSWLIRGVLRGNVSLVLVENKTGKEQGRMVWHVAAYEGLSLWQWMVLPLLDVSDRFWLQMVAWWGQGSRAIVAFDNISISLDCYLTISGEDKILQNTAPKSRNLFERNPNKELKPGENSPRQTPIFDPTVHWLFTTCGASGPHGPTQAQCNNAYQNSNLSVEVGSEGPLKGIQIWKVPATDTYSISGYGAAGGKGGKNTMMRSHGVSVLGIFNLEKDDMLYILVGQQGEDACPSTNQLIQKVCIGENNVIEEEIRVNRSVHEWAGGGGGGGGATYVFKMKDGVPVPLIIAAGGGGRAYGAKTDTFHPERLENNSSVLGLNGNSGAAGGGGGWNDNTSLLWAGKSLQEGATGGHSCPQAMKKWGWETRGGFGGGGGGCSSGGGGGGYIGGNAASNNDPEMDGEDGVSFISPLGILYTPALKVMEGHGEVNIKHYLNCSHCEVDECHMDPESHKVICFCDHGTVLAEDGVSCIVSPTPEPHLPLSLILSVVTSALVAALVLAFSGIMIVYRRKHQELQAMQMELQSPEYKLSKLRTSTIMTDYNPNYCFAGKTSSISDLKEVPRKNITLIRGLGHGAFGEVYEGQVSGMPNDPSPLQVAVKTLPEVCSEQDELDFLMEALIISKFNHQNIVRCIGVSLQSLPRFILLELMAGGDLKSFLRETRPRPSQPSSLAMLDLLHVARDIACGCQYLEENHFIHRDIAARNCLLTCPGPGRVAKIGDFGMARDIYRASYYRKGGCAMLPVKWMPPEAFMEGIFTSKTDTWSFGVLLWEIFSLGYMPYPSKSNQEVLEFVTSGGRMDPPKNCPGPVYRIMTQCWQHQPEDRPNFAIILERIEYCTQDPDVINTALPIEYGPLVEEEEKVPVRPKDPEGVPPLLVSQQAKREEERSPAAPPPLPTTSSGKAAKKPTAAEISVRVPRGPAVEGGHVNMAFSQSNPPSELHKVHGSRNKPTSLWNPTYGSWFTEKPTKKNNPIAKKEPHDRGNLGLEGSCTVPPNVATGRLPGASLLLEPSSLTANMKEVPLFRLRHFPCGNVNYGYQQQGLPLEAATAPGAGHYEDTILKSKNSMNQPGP

Cc1cc2c(cc1Nc1nc(Nc3cccc(F)c3C(N)=O)c3cc[nH]c3n1)N(C(=O)CN(C)C)CCC2 [Example 246, 2-[(2-{[1-(N,N-dimethylglycyl)-6-methyl-1,2,3,4-tetrahydro-7-quinolinyl]amino}-1H-pyrrolo[2,3-d]pyrimidin-4-yl)amino]-6-fluorobenzamide]
IC50 (NCI-H929): < 250 nM
IC50 (ALK): 5.01 to 200 nM
